Test results as given in patent US20170127674A1, “MICROPROPAGATION OF ALEXANDRIAN LAUREL (DANAE RACEMOSA L)” (North Carolina A&T State University, priority 2012, published 2017).

Tests used:
Type in all cases: in vivo, Danae racemosa L.
[1] = test system: Alexandrian laurel seedlings; test: Culture of germinated seeds in BA-supplemented Woody Plant Medium
Method: All cultures described herein were transferred onto fresh media every 4 weeks and incubated in a plant tissue culture grade growth chamber under a 16-h photoperiod and a photo flux density of 37.6±4.8 μmol s^−1m^−2 light per day provided by cool white fluorescent tubes at 23±0.1° C., unless otherwise noted. At 10 weeks, a group of germinated seeds from Example 1 was removed from agar medium containing GA3 and transferred to a supplemented WPM culture further comprising BA (at 1.0, 2.0, or 3.0 mg/L, respectively 4.44, 8.88, or 13.32 μM).

[2] = test system: Alexandrian laurel seed; test: In vitro germination of seeds in agar medium containing GA3
Method: Seeds were purchased (Gethsemane Garden and Landscape Services, Inc., Greensboro, N.C.) and disinfected in a 20% bleach solution plus 20 drops Tween-20 per liter for 20 minutes and then rinsed immediately 3 times with sterile purified water.
The disinfected seeds were subsequently transferred to test tubes containing agar medium and 10 ppm GA3. The medium pH was adjusted to 5.8 with 1N KOH or 1 N HCl. The culture medium was sterilized by autoclaving at 121° C. (106 kPa) for 20 minutes.
(§1) All cultures described herein were transferred onto fresh media every 4 weeks and incubated in a plant tissue culture grade growth chamber under a 16-h photoperiod and a photo flux density of 37.6±4.8 μmol s^−1m^−2 light per day provided by cool white fluorescent tubes at 23±0.1° C., unless otherwise noted.
The seeds were prepared according to Materials and Methods above.
The micropropagated plantlets were then potted in soil and transferred to a greenhouse.

[3] = test system: Alexandrian laurel seedlings; test: Culture of germinated seeds in TDZ-supplemented Woody Plant Medium
Method: as §1
At 10 weeks, a group of germinated seeds from Example 1 was removed from agar medium containing GA3 and transferred to a supplemented WPM culture further comprising TDZ (at 1.0, 2.0, or 3.0 mg/L, respectively 4.54, 9.08, or 13.62 μM).

`c1ccc(CNc2ncnc3nc[nH]c23)cc1` [BA, 6-benzylamino purine] was tested, and the seedling development ([1]; early growth after the initial seed germination in the presence of BA) was “balanced seedling development by simultaneously promoting shoot growth and slowing down root growth” and the “shoot and root growth of young seedlings compared to Example 1A” value ([1]; supplemented WPM with BA at 1.0, 2.0 or 3.0 mg/L, about 4 weeks (FIG. 2)) was “more balanced shoot and root growth”.

In the case of `C=C1C[C@]23C[C@@]1(O)CC[C@H]2[C@@]12C=C[C@H](O)[C@@](C)(C(=O)O1)[C@H]2[C@@H]3C(=O)O` [GA3, gibberellic acid], the “root and shoot growth of germinated seeds” value ([2]; agar medium containing GA3, at 10 weeks (FIG. 1)) is reported as “a lot of root growth and little shoot growth” and the seed germination ([2]; agar medium with 10 ppm GA3, about 10 weeks) is reported as “a majority of the seeds had germinated”.

For `O=C(Nc1ccccc1)Nc1cnns1` [TDZ, [1-phenyl-3-(1,2,3-thidiazol-5-yl)urea]], the “appearance of root growth points” value ([3]; after 50 days of treatment in TDZ supplemented WPM) was “root growth points began to turn brown”, the shoots per seed ([3]; early growth after the initial seed germination in the presence of TDZ) was 5-10 shoots per seed and the shoot formation ([3]; supplemented WPM with TDZ at 1.0, 2.0 or 3.0 mg/L, about 50 days (FIG. 3)) was “multiple shoots from each seed”.
